For data set [1] the following is noted: extended dosing of the combination regimens; cited from earlier work.
The subject of data set [2] is genotype 1b (Con-1) HCV replicon. Put plainly: HCV replicon luciferase assay. The class given is cell-based. As to conditions: Hepatitis C virus, 72 h, Huh-7 cells, genotype 1b replicon, Renilla luciferase, 3 days incubation; for pEC50: read-out: EC50 lb (class); for EC50: read-out: EC50 (uM) lb. The method, then:
Cell lines. The cell lines used to evaluate compounds consist of a human hepatocyte derived cell line (Huh-7) that constitutively expresses a genotype 1b (Con-1) HCV replicon or a genotype 1b (Con-1) HCV replicon with an asparagine replacing the cysteine at amino acid 316, or a genotype 2a (JFH-1) replicon, containing a Renilla luciferase reporter gene. These cells were maintained in Dulbecco's modified Eagle medium (DMEM) containing 10% FBS, 100 U/mL penicillin/streptomycin and 1.0 mg/mL G418.
HCV replicon luciferase assay. To evaluate compound efficacy, titrated compounds were transferred to sterile 384-well tissue culture treated plates, and the plates were seeded with HCV replicon cells (50 μL at a density of 2.4×10^3 cells/well) in DMEM containing 4% FBS (final DMSO concentration at 0.5%). After 3 days incubation at 37° C., cells were analyzed for Renilla Luciferase activity using the EnduRen substrate (Promega cat #E6485) according to the manufacturer's directions. Briefly, the EnduRen substrate was diluted in DMEM and then added to the plates to a final concentration of 7.5 μM. The plates were incubated for at least 1 h at 37° C. then read on a Viewlux Imager (PerkinElmer) using a luminescence program. The 50% effective concentration (EC50) was calculated using the four-parameter logistic formula noted above.
Compound EC50 data is expressed as A:<100 nM; B=100-1000 nM; C>1000 nM).
In general terms: A replicon is a self-replicating genome or part of one, used to study replication in cells.

Data set [3] deals with HCV. As to conditions: combination therapy; cited from earlier work.

pEC50: −log10 of the molar value. Read-outs that look alike come from different tables or passages of the source.

As usually defined, the pEC50 is the negative decadic logarithm of the EC50, by convention in mol/L. For orientation: EC50 means the concentration at which the effect is half-maximal.

On to `CNC(=O)c1c(-c2ccc(F)cc2)oc2cc(N(CCO)S(C)(=O)=O)c(C3CC3)cc12` [HCV-796], for which, in data set [1], the hepatic toxicity result is listed as “hepatic toxicity observed”. With `CNC(=O)c1c(-c2ccc(-n3cc(C)cn3)cc2)oc2nc(CCC(F)(F)F)c(-c3cccc(C(=O)NC(C)(C)C)c3)cc12` [Compound 3008], in data set [2], the pEC50 was less than 6.00.

With `CCN(c1cc2oc(-c3ccc(-n4ccnn4)cc3)c(C(=O)NC)c2cc1-c1cccc(C(=O)NC(C)(C)C)c1)S(C)(=O)=O` [Compound 1002], in data set [2], the EC50 turned out to be 0.069 µM and the pEC50 was more than 7.00.

In the case of `CNC(=O)c1c(-c2ccc(-n3cnc(C)n3)cc2)oc2nc(CCC(F)(F)F)c(-c3cccc(C(=O)NC(C)(C)C)c3)cc12` [Compound 3004], the pEC50 in data set [2] is 6.00 to 7.00. The same measure, in the same setting: for `CCN(c1cc2oc(-c3ccc(-n4nccn4)cc3)c(C(=O)NC)c2cc1-c1cccc(C(=O)NC(C)(C)C)c1)S(C)(=O)=O` [Compound 1003] the value was more than 7.00. Same read-out and setting: for `CNC(=O)c1c(-c2ccc(-n3cc(C(F)(F)F)cn3)cc2)oc2nc(-n3cc(C(F)(F)F)cn3)c(-c3cccc(C(=O)NC(C)(C)C)c3)cc12` [Compound 2002] the value was less than 6.00. Consider `CNC(=O)c1c(-c2ccc(-n3ccc(C)n3)cc2)oc2nc(CCC(F)(F)F)c(-c3cccc(C(=O)NC(C)(C)C)c3)cc12` [Compound 3010], for which, in data set [2], the EC50 stood at 0.28 µM and the negative-log EC50 (pEC50) is 6.00 to 7.00. For `CNC(=O)c1c(-c2ccc(-c3ncccc3O)cc2)oc2nc(CCC(F)(F)F)c(-c3cccc(C(=O)NC(C)(C)C)c3)cc12` [Compound 4001], the pEC50 in data set [2] is 6.00 to 7.00. Take `CNC(=O)c1c(-c2ccc(-n3ccnn3)cc2)oc2nc(CCC(F)(F)F)c(-c3cccc(C(=O)NC(C)(C)C)c3)cc12` [Compound 3001]: in data set [2], the EC50 was 0.035 µM and the pEC50 is more than 7.00.

`CNC(=O)c1c(-c2ccc(-n3ncnc3C)cc2)oc2nc(CCC(F)(F)F)c(-c3cccc(C(=O)NC(C)(C)C)c3)cc12` [Compound 3002]: the pEC50 in data set [2] was less than 6.00. On to `CNC(=O)c1c(-c2ccc(-n3ccnc3)cc2)oc2nc(CCC(F)(F)F)c(-c3cccc(C(=O)NC(C)(C)C)c3)cc12` [Compound 3006], for which the pEC50 in data set [2] was 6.00 to 7.00.

On to `CNC(=O)c1c(-c2ccc(-n3cnnc3C)cc2)oc2nc(CCC(F)(F)F)c(-c3cccc(C(=O)NC(C)(C)C)c3)cc12` [Compound 3003], for which, in data set [2], the EC50 worked out at 3.32 µM and the pEC50 is less than 6.00. With `CNC(=O)c1c(-c2ccc(-n3cncn3)cc2)oc2nc(CCC(F)(F)F)c(-c3cccc(C(=O)NC(C)(C)C)c3)cc12` [Compound 3007], in data set [2], the pEC50 is 6.00 to 7.00. As for alpha-interferon and ribavirin, the “sustained efficacy, share of patients” value in data set [3] was 40%. As to `CNC(=O)c1c(-c2ccc(-n3cnc(C)c3)cc2)oc2nc(CCC(F)(F)F)c(-c3cccc(C(=O)NC(C)(C)C)c3)cc12` [Compound 3009], the pEC50 in data set [2] was less than 6.00. With `CCN(c1cc2oc(-c3ccc(-n4cccn4)cc3)c(C(=O)NC)c2cc1-c1cccc(C(=O)NC(C)(C)C)c1)S(C)(=O)=O` [Compound 1001], in data set [2], the EC50 worked out at 0.017 µM and the pEC50 was more than 7.00.

With `CNC(=O)c1c(-c2ccc(-n3ccc(C(F)(F)F)n3)cc2)oc2nc(-n3ccc(C(F)(F)F)n3)c(-c3cccc(C(=O)NC(C)(C)C)c3)cc12` [Compound 2001], the pEC50 in data set [2] was 6.00 to 7.00.

Values taken from US9840511B2, “2-(aryl or heteroaryl-)phenyl (AZA)benzofuran compounds for the treatment of hepatitis C” (BRISTOL-MYERS SQUIBB COMPANY, priority 2014, dated 2017).
